Experimental data reported in publication PMC4607586 (Bioorganic & medicinal chemistry letters, 2015).

What was measured:
HIV-1 protease = HIV-1 protease (Human immunodeficiency virus type 1 group M subtype B, UniProt P04585); experiment: HIV-1 protease enzyme inhibition assay; type: biochemical; conditions: for improvement of protease inhibitory activity over 5b: relative to N-methyl-N-propyl amide 5b
HIV-1 LAI = experiment: Antiviral assay using MT-2 cells exposed to HIV-1 LAI; type: cell-based

Compound: CCCN(C)C(=O)c1cccc(C(=O)N[C@@H](Cc2ccccc2)[C@H](O)CN(CC(C)C)S(=O)(=O)c2ccc(OC)cc2)c1 [Inhibitor 5b]
- enhanced potency over 5a (enzyme inhibition) (HIV-1 protease; relative to 5a): 5 fold

Compound: CCCN(CCC)C(=O)c1cccc(C(=O)N[C@@H](Cc2ccccc2)[C@H](O)CN(CC(C)C)S(=O)(=O)c2ccc(OC)cc2)c1 [Inhibitor 5e]
- antiviral activity (in words) (HIV-1 LAI): no appreciable antiviral activity

Compound: COc1ccc(S(=O)(=O)N(CC(C)C)C[C@@H](O)[C@H](Cc2ccccc2)NC(=O)c2cccc(C(=O)N3CCOCC3)c2)cc1 [Inhibitor 5f]
- improvement of protease inhibitory activity over 5b (HIV-1 protease): over 10 fold
- antiviral activity (in words) (HIV-1 LAI): very good antiviral activity

Compound: COc1ccc(S(=O)(=O)N(CC(C)C)C[C@@H](O)[C@H](Cc2ccccc2)NC(=O)c2cccc(C(=O)N3CCN(C)CC3)c2)cc1 [Inhibitor 5g]
- improvement of protease inhibitory activity over 5b (HIV-1 protease): over 10 fold
- antiviral activity (in words) (HIV-1 LAI): very good antiviral activity

Compound: COC[C@@H]1C[C@@H](O)CN1C(=O)c1cccc(C(=O)N[C@@H](Cc2ccccc2)[C@H](O)CN(CC(C)C)S(=O)(=O)c2ccc(OC)cc2)c1 [Inhibitor 5h]
- antiviral activity (in words) (HIV-1 LAI): moderate antiviral activity

Compound: COC[C@H]1C[C@H](O)CN1C(=O)c1cccc(C(=O)N[C@@H](Cc2ccccc2)[C@H](O)CN(CC(C)C)S(=O)(=O)c2ccc(OC)cc2)c1 [Inhibitor 5i]
- antiviral activity (in words) (HIV-1 LAI): moderate antiviral activity

Compound: COC[C@H]1C[C@@H](O)CN1C(=O)c1cccc(C(=O)N[C@@H](Cc2ccccc2)[C@H](O)CN(CC(C)C)S(=O)(=O)c2ccc(OC)cc2)c1 [Inhibitor 5k]
- antiviral activity (in words) (HIV-1 LAI): moderate antiviral activity
